Data from patent publication US7662842B2, “Thiazolidinone amides, thiazolidine carboxylic acid amides, and serine amides, including polyamine conjugates thereof, as selective anti-cancer agents” (Ohio State Univesity Research Foundation, priority 2003, dated 2010).

Tests used:
[1] = system: WM-164 cells; experiment: Sulforhodamine B assay in melanoma cells, WM-164; type: cell-based; settings: Homo sapiens, WM164, read-out: IC50 WM-164; SRB assay, 48 h incubation; melanoma cell line
[2] = system: human dermal fibroblasts; experiment: Sulforhodamine B assay, fibroblast control cells; type: cell-based; settings: Homo sapiens, Fibroblast, 48 h, SRB assay, 48 h incubation
[3] = system: SKMEL-188 melanoma cells; experiment: DNA content analysis by flow cytometry; type: cell-based; settings: SKMEL-188, 48 hours, 6 μM and 60 μM, FIG. 11B, Hydrochloride
Procedure: SKMEL-188 melanoma cells were incubated with Compound 4(R) at 60 μM for 48 hours. FIG. 11A is a graph showing the cytotoxicity as measured by LDH release from the cells following treatment. Data is presented as mean±SEM (n=8), *p<0.05, **p<0.005. FIG. 11B is a pair of graphs that show the DNA content, as measured by flow cytometry, of cells that were exposed to control (left) and Compound 4(R) (right).
DNA Content Analysis: SKMEM-188 cells were seeded in 10 cm Petri dishes at a density of 10^6 cell per dish. At 12 hours, the medium was changed to 5% FBS with different concentrations of the testing compound. Cells were incubated for 48 hours, and media with compounds were changed every 24 hours. Cells were trypsinized, washed with PBS, and fixed in ice-cold 70% ethanol. After fixing, the ethanol was removed by centrifugation, and cells were incubated in phosphate-citrate buffer (0.2M Na2HPO4, 4 mM citric acid, pH=7.8) for 1 hour. […] Samples were shaken for 30 minutes, and analyzed with FACS Caliber cytometer (Becton Dickinson, San Diego, Calif.). Data was analyzed and graphs were prepared using Modfit 2.0 (Verity Sofware House, Topsham, Me.).
To examine more closely the cell death induced by the tested compounds, LDH release was measured by calorimetric assay and DNA content was analyzed by flow cytometry. […]

[4] = system: LNCaP cells; experiment: DNA fragmentation by agarose gel electrophoresis; type: cell-based, human; settings: treatment for 24 to […], 3-50 μM, FIGS. 4A-B
Procedure: In FIG. 4B, the dose and exposure time are indicated for compound 5 as follows: lane 1, 100 bp DNA marker; lane 2, 5 μM for 24 h; lane 3, 5 μM for 48 h; lane 4, 5 μM for 72 h; lane 5, 5 μM for 96 h; lane 6, 3 μM for 96 h; lane 7, 8 μM for 48 h; and lane 8, 8 μM for 72 h.

[5] = system: effector capsase-3; experiment: Activation of effector caspase-3; type: cell-based

IC50 [1]: 0.46 µM
Activation of effector caspase-3 [5]: no increase in activity
SMILES: CCCCCCCCCCCCCCNC(=O)[C@@H]1CSC(c2ccccc2)N1.Cl (mixture of isomers) [Compound 4, (2RS, 4R)-2-Phenylthiazolidine-4-carboxylic acid tetradecylamide Hydrochloride]
IC50 [2]: 6.1 µM
DNA content / mode of cell death ([3]; listed as 4 (R enantiomer)): causes necrotic cell death
DNA content / mode of cell death ([3]; listed as 4R): disappearance of peaks corresponding to viable, proliferating cells
DNA fragmentation (apoptosis) in LNCaP cells [4]: induce cell apoptosis
